The term GI50 denotes the concentration that inhibits growth by half.

The values that follow come from ChEMBL document CHEMBL1201862, “PubChem BioAssay data set” (2004).

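Tested at 5 concentrations; 48 h exposure; 96-well plates; endpoints linearly interpolated, else capped at highest concentration. GI50: concentration for 50% inhibition of growth.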 Activity calls are given as the source filed them. Cut-off read from the data, not from the text of the source: active = GI50 up to about 1.1 µM and inactive = higher. Bounds are passed on as bounds.

What all share (assay): DTP human tumour cell line panel, 48 h
The test system of test [1] is MOLT-4.
Test [2] relates to SK-MEL-5.
Test [3] deals with IGROV-1.
Test [4] has as its system K562.
The subject of test [5] is SK-OV-3.
Test [6] relates to SNB-19.
Test [7] has as its system SF-295.
Test [8] relates to HCT-15.
Test [9] concerns NCI-H522.
Test [10] relates to KM12.
Test [11] has as its system TK-10.
Test [12] relates to A549.
In test [13] the test system is DMS-114.
Test [14] has as its system UO-31.
Test [15] deals with SN12C.
Test [16] relates to SNB-75.
The subject of test [17] is HT-29.

For the compound `CCC(O)(c1ccc(OC)cc1)C(c1ccc(OCc2ccccc2)cc1)c1ccc(OCc2ccccc2)cc1` (centres undefined), the GI50 in [1], in [2], in test [3], in test [4], in test [5] and in test [6] was > 100 µM (inactive) in each case. Moreover, the GI50 in [7] is > 100 µM (inactive); in [8], greater than 100 µM; in [9] it was > 100 µM (inactive); in [10] it was > 100 µM (inactive); in test [11] it was > 100 µM (inactive); in test [12], > 100 µM (inactive). Besides, the GI50 was > 100 µM (inactive) in test [13]; > 100 µM (inactive) in test [14]; 99.5 µM (inactive) in [15]; > 100 µM (inactive) in test [16]; > 100 µM (inactive) in [17].
Take `O=C1c2ccccc2C(=O)c2sc(Nc3ccc(Cl)cc3)nc21`: the GI50 is 0.762 µM (active) in test [1]; 1.8 µM (inactive) in [2]; 2.44 µM (inactive) in test [3]; 1.96 µM (inactive) in test [4]; 18.9 µM (inactive) in test [5]; 5.73 µM (inactive) in [6]. Moreover, the GI50 is 5.53 µM (inactive) in test [7]; 1.8 µM in [8]; 1.61 µM (inactive) in [9]; 2.04 µM (inactive) in test [10]; 5.89 µM (inactive) in test [11]; 8.63 µM (inactive) in [12]. Moreover, the GI50 was 1.82 µM (inactive) in [13]; 3.35 µM (inactive) in [14]; 1.85 µM (inactive) in [15]; 8.41 µM (inactive) in [16]; 4.15 µM (inactive) in test [17].
On to `CC1=Nc2c(ccc3c2C(=O)c2ccccc2C3=O)NC(c2ccncc2)C1` (centres undefined), for which the GI50 is 3.73 µM (inactive) in test [1]; > 100 µM (inactive) in [2]; 4.94 µM (inactive) in [3]; > 100 µM (inactive) in test [4]; 6.49 µM (inactive) in test [5]; > 10 µM (inactive) in test [6]. The GI50 in [7] was > 10 µM (inactive); in test [8], 9.93 µM; in test [9], 6.82 µM (inactive); in test [10], 5.07 µM (inactive); in test [11], > 100 µM (inactive); in test [12], 13.3 µM (inactive). The GI50 in test [13] was 7.74 µM (inactive); in [14], 4.72 µM (inactive); in [15] it was 57.4 µM (inactive); in test [16], 5.96 µM (inactive); in test [17], > 10 µM (inactive).
Consider `COC(=O)c1nn(C(=N)c2ccc(Cl)cc2)c2c1CCC2`, for which the GI50 in test [1], in [2], in [3], in test [4], in test [5] and in test [6] was > 100 µM (inactive) in each case. Moreover, the GI50 in test [7] is > 100 µM (inactive); in [8], greater than 100 µM; in test [9], > 100 µM (inactive); in [10] it was > 100 µM (inactive); in [11] it was > 100 µM (inactive); in test [12], > 100 µM (inactive). Further, the GI50 in test [13], in [14], in test [15], in [16] and in test [17] was > 100 µM (inactive) throughout.
Regarding `Cn1nc(N)nc1N=S(C)(C)=N`, the GI50 in test [1], in [2], in test [3], in test [4], in test [5] and in [6] was > 100 µM (inactive) in each case. Moreover, the GI50 is > 100 µM (inactive) in [7]; greater than 100 µM in [8]; 83.9 µM (inactive) in test [9]; > 100 µM (inactive) in [10]; > 100 µM (inactive) in test [11]; > 100 µM (inactive) in test [12]. In addition, the GI50 in test [13] was > 100 µM (inactive); in test [14], 88.9 µM (inactive); in test [15], > 100 µM (inactive); in test [16], > 100 µM (inactive); in test [17], > 100 µM (inactive).
Turning to `COC1C=COC2(C)Oc3c(C)c(O)c4c(O)c(c(/C=N/N5CCN(N)CC5)c(O)c4c3C2=O)NC(=O)C(C)=CC=CC(C)C(O)C(C)C(O)C(C)C(OC(C)=O)C1C` (centres undefined), the GI50 is 39 µM (inactive) in test [1]; 84.3 µM (inactive) in [2]; > 100 µM (inactive) in test [3]; 44.4 µM (inactive) in test [4]; > 100 µM (inactive) in [5]; > 100 µM (inactive) in [6]. The GI50 is 84.3 µM (inactive) in test [7]; 80.7 µM in [8]; 34 µM (inactive) in [9]; 68.4 µM (inactive) in [10]; > 100 µM (inactive) in [11]; > 100 µM (inactive) in [12]. The GI50 in test [13] is 64.4 µM (inactive); in test [14] it was 41.7 µM (inactive); in test [15] it was > 100 µM (inactive); in test [16], 34.7 µM (inactive); in [17], 38.4 µM (inactive).
Take `O=C1CCCCCCCCCCC(=O)C2CCOCCOCCOCCC1Cc1cccc(n1)C2`: the GI50 is 31.6 µM (inactive) in test [1]; 42.4 µM (inactive) in test [2]; 90.4 µM (inactive) in [3]; 50.1 µM (inactive) in [4]; > 100 µM (inactive) in test [5]; > 100 µM (inactive) in [6]. The GI50 in test [7] was 76.7 µM (inactive); in [8] it was 83.2 µM; in [9], 43.9 µM (inactive); in [10], 59.3 µM (inactive); in test [11], > 100 µM (inactive); in [12] it was > 100 µM (inactive). The GI50 in test [13] was 77.6 µM (inactive); in [14], 42.1 µM (inactive); in test [15], 64.9 µM (inactive); in [16] it was 49.3 µM (inactive); in [17], > 100 µM (inactive).
For `OCC(O)COc1c(Cl)cc(Cl)cc1Cl` (centres undefined), the GI50 is > 31.6 µM (inactive) in test [1]; > 100 µM (inactive) in [2]; > 100 µM (inactive) in test [3]; > 46.6 µM (inactive) in [4]; > 100 µM (inactive) in test [5]; > 100 µM (inactive) in test [6]. The GI50 in test [7] is > 100 µM (inactive); in [8], greater than 100 µM; in test [9], > 100 µM (inactive); in test [10], > 100 µM (inactive); in test [11], > 100 µM (inactive); in test [12], > 100 µM (inactive). For the same compound, the GI50 in [13], in [14], in test [15], in test [16] and in [17] was > 100 µM (inactive) throughout.
For the compound `COc1cc2c[n+](C)c3c4cc(OC)c(OC(C)C)cc4ccc3c2cc1OC`, the GI50 in test [1] is 50.5 µM (inactive); in test [2] it was 23.4 µM (inactive); in test [3] it was 45.1 µM (inactive); in test [4] it was 32.3 µM (inactive); in [5], > 100 µM (inactive); in [6], 51.8 µM (inactive). In addition, the GI50 in test [7] was > 100 µM (inactive); in [8], greater than 100 µM; in test [9], 16.9 µM (inactive); in test [10] it was 29.8 µM (inactive); in test [11], > 100 µM (inactive); in test [12] it was 77.6 µM (inactive). Further, the GI50 is 5.85 µM (inactive) in [13]; > 100 µM (inactive) in [14]; 37.8 µM (inactive) in test [15]; 44.9 µM (inactive) in test [16]; 49.3 µM (inactive) in test [17].
As to `CN(C)CCCOc1ccc(/C=C2/CCC/C(=C/c3ccc(OCCCN(C)C)cc3)C2=O)cc1`, the GI50 was 0.877 µM (active) in test [1]; 2.23 µM (inactive) in [2]; 2.72 µM (inactive) in test [3]; 0.299 µM (active) in test [4]; 1.93 µM (inactive) in [5]; 2.08 µM (inactive) in test [6]. Besides, the GI50 was 1.9 µM (inactive) in [7]; 0.995 µM in [8]; 1.8 µM (inactive) in test [9]; 1.32 µM (inactive) in [10]; 2.67 µM (inactive) in test [11]; 3.3 µM (inactive) in test [12]. Moreover, the GI50 was 1.56 µM (inactive) in test [13]; 1.79 µM (inactive) in test [14]; 1.39 µM (inactive) in test [15]; 1.28 µM (inactive) in test [16]; 0.442 µM (active) in test [17].
As for `Cc1ccccc1C(C#N)C(=O)C(=O)Nc1cccc(Cl)c1` (centres undefined), the GI50 in test [1] was > 100 µM (inactive); in test [2] it was > 100 µM (inactive); in test [3] it was > 100 µM (inactive); in test [4] it was 32.2 µM (inactive); in [5], > 100 µM (inactive); in test [6], > 100 µM (inactive). In addition, the GI50 is > 100 µM (inactive) in [7]; greater than 100 µM in test [8]; 58.5 µM (inactive) in test [9]; > 100 µM (inactive) in test [10]; > 100 µM (inactive) in [11]; > 100 µM (inactive) in [12]. The GI50 in test [13] is 54.6 µM (inactive); in test [14], > 100 µM (inactive); in test [15] it was > 100 µM (inactive); in [16], > 100 µM (inactive); in [17], > 100 µM (inactive).
`CN(c1n[n+]2c(-c3ccccc3)csc2s1)c1n[n+]2c(-c3ccccc3)csc2s1`: the GI50 in test [1] was > 100 µM (inactive); in test [2], 89.5 µM (inactive); in [3] it was > 100 µM (inactive); in test [4], 42.8 µM (inactive); in test [5] it was > 100 µM (inactive); in test [6], > 100 µM (inactive). Moreover, the GI50 was > 100 µM (inactive) in [7]; 0.144 µM in test [8]; 33.7 µM (inactive) in test [9]; > 100 µM (inactive) in test [10]; > 100 µM (inactive) in [11]; > 100 µM (inactive) in test [12]. Further, the GI50 in [13] is 59.6 µM (inactive); in test [14], > 100 µM (inactive); in [15] it was > 100 µM (inactive); in test [16], > 100 µM (inactive); in test [17], > 100 µM (inactive).
